{"source": "ChEMBL document CHEMBL5236590", "about": "“Discovery of Novel N-(5-(Pyridin-3-yl)-1H-indazol-3-yl)benzamide Derivatives as Potent Cyclin-Dependent Kinase 7 Inhibitors for the Treatment of Autosomal Dominant Polycystic Kidney Disease” (J Med Chem, 2022)", "key": {"[1]": {"molecular_target": "T1, Cyclin-dependent kinase 7 (Homo sapiens, UniProt P50613)", "T1 sequence (P50613 whole entry)": "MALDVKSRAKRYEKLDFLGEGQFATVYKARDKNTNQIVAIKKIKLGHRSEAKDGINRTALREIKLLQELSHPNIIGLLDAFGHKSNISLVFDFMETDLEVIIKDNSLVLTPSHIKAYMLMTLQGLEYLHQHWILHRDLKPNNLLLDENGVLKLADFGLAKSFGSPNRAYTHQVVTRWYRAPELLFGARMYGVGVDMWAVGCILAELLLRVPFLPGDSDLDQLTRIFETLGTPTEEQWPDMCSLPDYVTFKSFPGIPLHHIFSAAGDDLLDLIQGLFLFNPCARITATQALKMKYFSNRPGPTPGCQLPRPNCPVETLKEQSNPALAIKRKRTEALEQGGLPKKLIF", "assay": "Inhibition of CDK7 (unknown origin) assessed as phosphorylation of ULight 4EBP1 peptide substrate measured after 2 hrs by FRET-based LANCE Ultra KinSelect assay"}, "[2]": {"molecular_target": "T2, Cyclin-dependent kinase 2 (Homo sapiens, UniProt P24941)", "assay": "Inhibition of CDK2 (unknown origin) assessed as phosphorylation of ULight 4EBP1 peptide substrate measured after 2 hrs by FRET-based LANCE Ultra KinSelect assay"}, "[3]": {"molecular_target": "T2, Cyclin-dependent kinase 2", "assay": "Inhibition of CDK2 (unknown origin) assessed as phosphorylation of ULight 4EBP1 peptide substrate at 10 uM measured after 2 hrs by FRET-based LANCE Ultra KinSelect assay"}, "THP-1": {"test_system": "THP-1", "assay": "Cytotoxicity against human THP-1 cells assessed as cell viability measured after 24 hrs by CCK-8 assay", "assay_type": "functional, cell-based", "settings": "THP-1, 24 h"}, "[4]": {"molecular_target": "T1, Cyclin-dependent kinase 7", "assay": "Inhibition of CDK7 (unknown origin) assessed as phosphorylation of ULight 4EBP1 peptide substrate at 10 uM measured after 2 hrs by FRET-based LANCE Ultra KinSelect assay relative to control"}}, "data": [{"compound": "Cc1cncc(-c2ccc3[nH]nc(NC(=O)c4ccccc4)c3c2)c1", "values": [{"measurement": "IC50", "setting": "[1]", "value": 2610, "unit": "nM"}]}, {"compound": "N[C@H](COc1cncc(-c2ccc3[nH]nc(NC(=O)c4ccccc4)c3c2)c1)c1ccccc1", "values": [{"measurement": "IC50", "setting": "[2]", "value": 120, "unit": "nM"}, {"measurement": "IC50", "setting": "[1]", "value": 692, "unit": "nM"}]}, {"compound": "O=C(Nc1n[nH]c2ccc(-c3cncc(NC[C@H](O)c4ccccc4)c3)cc12)c1ccccc1", "values": [{"measurement": "IC50", "setting": "[2]", "value": 269, "unit": "nM"}, {"measurement": "IC50", "setting": "[1]", "value": 311, "unit": "nM"}]}, {"compound": "N[C@@H](COc1cncc(-c2ccc3[nH]nc(NC(=O)c4ccccc4)c3c2)c1)Cc1ccccc1", "values": [{"measurement": "IC50", "setting": "[2]", "value": 499, "unit": "nM"}, {"measurement": "IC50", "setting": "[1]", "value": 2390, "unit": "nM"}]}, {"compound": "C=CC(=O)Nc1ccc(C(=O)Nc2n[nH]c3ccc(-c4cncc(NC(=O)[C@@H](N)c5ccccc5)c4)cc23)cc1", "values": [{"measurement": "IC50", "setting": "[1]", "value": 64, "unit": "nM"}]}, {"compound": "N[C@@H](Cc1ccccc1)C(=O)Nc1cncc(-c2ccc3[nH]nc(NC(=O)c4ccccc4)c3c2)c1", "values": [{"measurement": "IC50", "setting": "[2]", "value": 1050, "unit": "nM"}, {"measurement": "IC50", "setting": "[1]", "value": 1340, "unit": "nM"}]}, {"compound": "N[C@H](Cc1ccccc1)C(=O)Nc1cncc(-c2ccc3[nH]nc(NC(=O)c4ccccc4)c3c2)c1", "values": [{"measurement": "IC50", "setting": "[2]", "value": 550, "unit": "nM"}, {"measurement": "IC50", "setting": "[1]", "value": 2070, "unit": "nM"}]}, {"compound": "N[C@H](C(=O)Nc1cncc(-c2ccc3[nH]nc(NC(=O)c4ccccc4)c3c2)c1)c1ccccc1", "values": [{"measurement": "inhibition", "setting": "[3]", "value": 34, "unit": "%"}, {"measurement": "IC50", "setting": "[1]", "value": 3140, "unit": "nM"}]}, {"compound": "O=C(Nc1n[nH]c2ccc(-c3cncc(NCCO)c3)cc12)c1ccccc1", "values": [{"measurement": "IC50", "setting": "[1]", "value": 1710, "unit": "nM"}]}, {"compound": "O=C(Nc1n[nH]c2ccc(-c3cncc(NC[C@@H](O)c4ccccc4)c3)cc12)c1ccccc1", "values": [{"measurement": "IC50", "setting": "[2]", "value": 802, "unit": "nM"}, {"measurement": "IC50", "setting": "[1]", "value": 440, "unit": "nM"}]}, {"compound": "NCCOc1cncc(-c2ccc3[nH]nc(NC(=O)c4ccccc4)c3c2)c1", "values": [{"measurement": "IC50", "setting": "[1]", "value": 2000, "unit": "nM"}]}, {"compound": "O=C(Nc1n[nH]c2ccc(-c3cncc(NC[C@H](CO)Cc4ccccc4)c3)cc12)c1ccccc1", "values": [{"measurement": "IC50", "setting": "[2]", "value": 2400, "unit": "nM"}, {"measurement": "IC50", "setting": "[1]", "value": 2640, "unit": "nM"}]}, {"compound": "NCC(=O)Nc1cncc(-c2ccc3[nH]nc(NC(=O)c4ccccc4)c3c2)c1", "values": [{"measurement": "IC50", "setting": "[1]", "value": 2490, "unit": "nM"}]}, {"compound": "O=C(Nc1n[nH]c2ccc(-c3cncc(NC[C@@H](CO)Cc4ccccc4)c3)cc12)c1ccccc1", "values": [{"measurement": "IC50", "setting": "[2]", "value": 609, "unit": "nM"}, {"measurement": "IC50", "setting": "[1]", "value": 670, "unit": "nM"}]}, {"compound": "O=C(Nc1n[nH]c2ccc(-c3cccnc3)cc12)c1ccccc1", "values": [{"measurement": "IC50", "setting": "[1]", "value": 7550, "unit": "nM"}]}, {"compound": "O=C(Nc1n[nH]c2ccc(-c3cncc(O)c3)cc12)c1ccccc1", "values": [{"measurement": "IC50", "setting": "[1]", "value": 7240, "unit": "nM"}]}, {"compound": "C=CC(=O)Nc1ccc(C(=O)Nc2n[nH]c3ccc(-c4cncc(NC(=O)[C@@H](N)Cc5ccccc5)c4)cc23)cc1", "values": [{"measurement": "IC50", "setting": "[2]", "value": 477, "unit": "nM"}, {"measurement": "IC50", "setting": "[1]", "value": 7, "unit": "nM"}]}, {"compound": "N[C@H](COc1cncc(-c2ccc3[nH]nc(NC(=O)c4ccccc4)c3c2)c1)Cc1ccccc1", "values": [{"measurement": "IC50", "setting": "[2]", "value": 97, "unit": "nM"}, {"measurement": "IC50", "setting": "[1]", "value": 335, "unit": "nM"}]}, {"compound": "O=C(Nc1n[nH]c2ccc(-c3cncc(NC[C@H](CO)c4ccccc4)c3)cc12)c1ccccc1", "values": [{"measurement": "IC50", "setting": "[2]", "value": 577, "unit": "nM"}, {"measurement": "IC50", "setting": "[1]", "value": 1730, "unit": "nM"}]}, {"compound": "NCCNc1cncc(-c2ccc3[nH]nc(NC(=O)c4ccccc4)c3c2)c1", "values": [{"measurement": "IC50", "setting": "[1]", "value": 1560, "unit": "nM"}]}, {"compound": "CN(C)C/C=C/C(=O)Nc1ccc(C(=O)Nc2cccc(Nc3ncc(Cl)c(-c4c[nH]c5ccccc45)n3)c2)cc1", "values": [{"measurement": "IC50", "setting": "THP-1", "value": 77000, "unit": "nM"}]}, {"compound": "COc1cncc(-c2ccc3[nH]nc(NC(=O)c4ccccc4)c3c2)c1", "values": [{"measurement": "IC50", "setting": "[1]", "value": 5530, "unit": "nM"}]}, {"compound": "N[C@@H](COc1cncc(-c2ccc3[nH]nc(NC(=O)c4ccccc4)c3c2)c1)c1ccccc1", "values": [{"measurement": "inhibition", "setting": "[3]", "value": 48, "unit": "%"}, {"measurement": "IC50", "setting": "[1]", "value": 4920, "unit": "nM"}]}, {"compound": "N[C@@H](C(=O)Nc1cncc(-c2ccc3[nH]nc(NC(=O)c4ccccc4)c3c2)c1)c1ccccc1", "values": [{"measurement": "inhibition", "setting": "[3]", "value": 29, "unit": "%"}, {"measurement": "inhibition", "setting": "[4]", "value": 34, "unit": "%"}]}, {"compound": "C=CC(=O)Nc1ccc(C(=O)Nc2n[nH]c3ccc(-c4cncc(N[C@H](CO)c5ccccc5)c4)cc23)cc1", "values": [{"measurement": "IC50", "setting": "[2]", "value": 756, "unit": "nM"}, {"measurement": "IC50", "setting": "[1]", "value": 19, "unit": "nM"}]}, {"compound": "NC[C@@H](CNc1cncc(-c2ccc3[nH]nc(NC(=O)c4ccccc4)c3c2)c1)c1ccccc1", "values": [{"measurement": "IC50", "setting": "[2]", "value": 190, "unit": "nM"}, {"measurement": "IC50", "setting": "[1]", "value": 395, "unit": "nM"}]}, {"compound": "Nc1cncc(-c2ccc3[nH]nc(NC(=O)c4ccccc4)c3c2)c1", "values": [{"measurement": "inhibition", "setting": "[4]", "value": 45, "unit": "%"}]}, {"compound": "CNC(=O)c1cncc(-c2ccc3[nH]nc(NC(=O)c4ccccc4)c3c2)c1", "values": [{"measurement": "IC50", "setting": "[1]", "value": 3780, "unit": "nM"}]}, {"compound": "O=C(Nc1n[nH]c2ccc(-c3cncc(NC[C@@H](CO)c4ccccc4)c3)cc12)c1ccccc1", "values": [{"measurement": "IC50", "setting": "[2]", "value": 813, "unit": "nM"}, {"measurement": "IC50", "setting": "[1]", "value": 710, "unit": "nM"}]}, {"compound": "C=CC(=O)Nc1ccc(C(=O)Nc2n[nH]c3ccc(-c4cncc(N[C@H](CO)Cc5ccccc5)c4)cc23)cc1", "values": [{"measurement": "IC50", "setting": "[2]", "value": 595, "unit": "nM"}, {"measurement": "IC50", "setting": "[1]", "value": 5, "unit": "nM"}]}, {"compound": "C=CC(=O)Nc1ccc(C(=O)Nc2n[nH]c3ccc(-c4cncc(NC[C@H](O)c5ccccc5)c4)cc23)cc1", "values": [{"measurement": "IC50", "setting": "[2]", "value": 918, "unit": "nM"}, {"measurement": "IC50", "setting": "[1]", "value": 6, "unit": "nM"}]}]}
